In brackets after ≈: the same amount, converted by molar mass. Where two headings read alike, the source gives them in different places.
Tests used:
[1] = Partition between octanol and aqueous buffer (Log D7.4); format: physicochemical; conditions: pH 7.4
Excerpt: (§1) The main reason for failure in drug development is poor biopharmaceutical properties, which include low aqueous solubility, chemical instability.
(§2) The biopharmaceutical properties of the synthesized M13 (5-glutathione-6-shogaol) were characterized.

[2] = Thermodynamic (equilibrium) solubility; format: physicochemical; conditions: read-out: thermodynamic (or equilibrium) solubility
Excerpt: as §1, §2

[3] = Incubation with mouse intestinal microsomes (HPLC); format: in vitro ADME; conditions: mouse, intestinal microsomes; incubation for 30 minutes; read-out: relative content retained of the input
Excerpt: as §2

[4] = test system: human T lymphocytes; assay: Immunogenic effects on T lymphocytes in cultured PBMCs (flow cytometry); format: cell-based; conditions: 20 μM, 4-day, vs SC and standard control
Experimental: PBMCs were provided by STEMCELL Technologies (STEMCELL Canada Inc.) and maintained in ImmunoCult™-XF T-cell Expansion Medium (Cat #10981). HIEC-6 cells were maintained in OptiMEM 1 Reduced Serum Medium supplemented with 20 mM HEPES, 10 mM GlutaMAX, 10 ng/mL Epidermal Growth Factor, 4% (v/v) fetal bovine serum (FBS), and 1% penicillin-streptomycin (PS). HCT-116 cells were maintained in ATCC-formulated McCoy's 5a medium, supplemented with 10% (v/v) FBS and 1% PS. Caco-2/BBe cells were grown in DMEM supplemented with 10% (v/v) FBS and 1% PS (v/v). Human colon cancer stem cells (HC-CSC) were maintained in complete growth media with serum and antibiotics (Cat #M36112-39S) from Celprogen Inc. (Torrance, CA, USA).
To evaluate the immunogenic effects of M13 on human T lymphocytes, PBMCs were cultured in blank medium (standard control), medium containing CD3/CD28 activator (positive control), medium containing solvent (solvent control, SC), and medium containing M13 solution (20 μM). All the groups were cultured in the presence or absence of interleukin-2 (IL-2). After a 4-day incubation, PBMCs were labeled with immunofluorescent dyes and analyzed using flow cytometry.

[5] = test system: 3D-cultured Caco-2/BBe cells; assay: 3D droplet-based cell spheroid model, long-term cytotoxicity; conditions: Homo sapiens, Caco-2, 264 h, 11 days
Experimental: To assess the long-term cytotoxicity of M13 against cancer cells, a 3D droplet-based Caco-2/BBe cell spheroid model was established using 3D printing. The diameter of the 3D cell spheres was approximately 1.65-1.75 mm. The 3D-cultured cells were incubated with different concentrations of M13 for 11 days, and droplet size (calculated using scanned images) and viability (live/dead cell staining and intracellular ATP) were analyzed (FIG. 12C). […] The cell viability of the M13-treated spheres was normalized as a percentage of the negative control (NC, 100% viable, without M13 treatment).

[6] = test system: AOM/DSS-induced colon tumors; assay: AOM/DSS-induced CAC mouse model, oral gavage; format: in vivo, C57BL/6J mice; conditions: 5 mg/kg oral, vs AOM/DSS group
Experimental: Female C57BL/6J mice (Strain #:000664, The Jackson Laboratory, Bar Harbor, ME), female interleukin-10 knock-out (IL10^−/− mice, B6.129P2-IL10 tmlCgn, The Jackson Laboratory), and female CD-1 mice (CD-1@IGS Mouse, outbred, Charles River) were housed in a clean facility maintained at 22±2° C. and 30-70% relative humidity with a 12-h light/dark cycle. The diet (ABDIET@PICOLAB®, PMI Nutrition International LLC, Arden Hills, MN, USA) and water were provided ad libitum. Mice experiments were performed following ARRIVE guidelines 2.0, with approval from the Georgia State University Institutional Animal Care and Use Committee (IACUC, Protocol #A20039).
An AOM/DSS-induced CAC mouse model (C57BL/6J) was used to test the anti-cancer effects of free M13, NL, and M13-NL. […] Healthy mice were used as the control group (WT group).
Histological assessments of the colon tissues from AOM/DSS-induced CAC mice were performed. […] Immunofluorescence (IF) staining of apoptotic cells (TUNEL) and immunohistochemical (IHC) staining of Ki-67 were used to investigate the pro-apoptotic and anti-proliferative effects of M13-NL in vivo.

[7] = test system: Vero cells; conditions: added one-hour post-infection setting
Experimental: Virus and formulations were then left on the cells for the entire duration of the experiment (24 hours). The cytotoxicity of the same range of concentrations of formulations was determined by MTT assay.
The antiviral plates were incubated for 1 hour at 37° C., 5% CO2. The cytotoxicity plates were incubated for 24 hours at 37° C., 5% CO2.
After 24 hours, the infection plates were washed with PBS, fixed for 30 minutes with 4% formaldehyde, washed again with PBS, and stored in PBS at 4° C. until staining. The cytotoxicity plate was treated with MTT to determine cell viability.
Cytotoxicity was detected by MTT assay. Briefly, the MTT reagent (Sigma, M5655) was added to the cells for 2 hours at 37° C., 5% CO2, after which the media was removed, and the precipitate solubilized with a mixture of 1:1 Isopropanol: DMSO for 20 minutes. The supernatant was transferred to a clean plate and signal was read at 570 nm.

[8] = test system: human colon cancer cells (HCT-116); conditions: cited from earlier work

CCCCCC(CC(=O)CCc1ccc(O)c(OC)c1)SCC(NC(=O)CCC(N)C(=O)O)C(=O)NCC(=O)O (centres unmarked) [M13, 5-glutathione-6-shogaol]
logD [1]: -1.75
solubility thermodynamic ([2]; Example 1): 1390 µM (≈ 812 µg/mL)
solubility thermodynamic ([2]; as printed in Example 6): 1390 µM (≈ 811 µg/mL)
remaining at 0.5 h [3]: 86%
proliferation of activated CD4+ and CD8+ lymphocytes ([4]; activated-stage (with IL-2)): reduced proliferation
percentages of CD4+ and CD8+ T-cell populations and T-cell proliferation status ([4]; resting-stage (without IL-2)): similar
minimal effective concentration ([5]; read-out: M13 concentration at which green fluorescence intensity is significantly lower than NC, live/dead staining): > 80 µM
EC50 ([5]; ATP content, extrapolated dose-response curve, read-out: half-maximal effective concentration (EC50)): 182 µM
number of tumors [6]: failed to reduce the number of tumors
toxicity [7]: low toxicity
bioactivity [8]: exhibited bioactivity
